From patent US20240350411A1, “METHODS FOR PREPARING LIPOSOMAL FORMULATIONS” (Celator Pharmaceuticals, Inc., priority 2021, published 2024) come the findings set out here.

The data set is described as follows: Removal of free drug during purification with acidified sugar solution: concentration in the permeate. From the text: Without being bound by theory, it is surmised that encapsulation of therapeutic agents into liposomes results in some portion of the therapeutic agent becoming associated with or trapped within the lipid bilayer, particularly when encapsulating therapeutic agents with low water solubility or high hydrophobicity. Purifying the liposomal composition with an acidified aqueous solution may remove therapeutic agent that is associated with or trapped within the lipid bilayer, resulting in a liposome formulation that contains a therapeutic agent that is only encapsulated within the internal medium of the liposomes. […] As the washing volume increases—that is, as the liposomal composition is washed with an increasing amount of acidified aqueous sugar solution—the amount of Compound 9 detected in the permeate peaks, and then decreases. The peak is thought to result from a rapid release of Compound 9 that is associated with or trapped in the lipid bilayer into the acidified aqueous sugar solution. […] In other words, purifying the liposomal composition with an acidified aqueous solution may allow for any therapeutic agent merely associated with or trapped within the lipid bilayer to release into the acidified aqueous solution, thus preventing a rapid release from occurring in the bloodstream of a patient upon administration.
A formulation of liposomes containing Compound 9 was prepared and purified as described in Examples 1A, 1B, and 2. The liposome formulation comprised DSPC/Cholesterol/PEGylated (58/40/2 mol %) and used 250 mM AS as the loading aid.
During the purification of the formulation using tangential flow filtration, the concentration of Compound 9 in the permeate was measured, as shown below in Table 7. FIG. 3 depicts the concentration of Compound 9 in the permeate vs. the washing volume.

Structures are written as SMILES.

As to `CCN(CC)C1CCN(CC[C@H](CSc2ccccc2)Nc2ccc(S(=O)(=O)NC(=O)c3ccc(N4CCN(CC5=C(c6ccc(Cl)cc6)CCC(C)(C)C5)CC4)cc3)cc2S(=O)(=O)C(F)(F)F)CC1` [Compound 9], the “Compound 9 detected in the permeate” value (after washing with about 300-400 mL of acidified aqueous sugar solution (FIG. 3)) is reported as “little”. Besides, the “Concentration of Compound x in the permeate” value stood at 7100 ng/mL (washing volume 1×); 15900 ng/mL (washing volume 3×); 3500 ng/mL (washing volume 6×); 1400 ng/mL (washing volume 9×); 1000 ng/mL (washing volume 12×).
